The values that follow come from patent publication US10533029B1, “Anticancer trans-diaminoplatinum(II) complexes of selenones” (KING FAHD UNIVERSITY OF PETROLEUM AND MINERALS, priority 2018, dated 2020).

The subject of data set [1] is human cervical cancer HeLa cells. Briefly: MTT in vitro cytotoxicity, HeLa. The conditions noted are these: for IC50: HeLa, 72 h incubation, read-out: IC50 values against HeLa; for cytotoxicity compared to cisplatin: HeLa cells. The data set is classed as cell-based. The protocol:
(§1) Solutions of Pt(II) complexes of selenone 1-7 and cisplatin at concentrations of 1.0 μM, 5.0 μM, 10.0 μM, 25.0 μM, and 50.0 μM were prepared in Dulbecco modified eagle medium (DMEM). The human cervical cancer cell line HeLa and human breast cancer cell line MDA-231 were seeded and maintained in quadruplicate in a 96-well tissue culture plate at 5×10^4 cells per well in 200 μL of the same medium. The cancer cells were incubated for 24 hours before treatment. All compounds were dissolved in 50% DMSO. Therefore DMSO was used as a negative control. The final DMSO concentration, in each well, was less than 0.1%. The cancer cells were treated with platinum complexes of compounds 1-7 and cisplatin, and the resulting cultures were incubated for 72 h. The medium of wells was discarded and 100 μL DMEM containing (5 mg/mL) MTT (3-(4,5-dimethylthiazol-2-yl)-2,5-diphenyltetrazolium bromide) was added to each well and the cultures incubated in a CO2 incubator at 37° C. in the dark for 4 hrs. After incubation, a purple colored formazan (artificial chromogenic dye, a product of the reduction of water […] tetrazolium salts e.g., MTT by dehydrogenases and reductases) in the cells is produced and appeared as dark crystals in the bottom of the wells. The medium of culture was discarded from each well carefully to avoid disruption of the monolayer. Isopropanol (100 μL) was added in each well. The solution was thoroughly mixed in the wells to dissolve the formazan crystals which results in a purple solution. The absorbance of the 96-well plate was measured at 570 nm with Mithras 2LB943 multimode microplate reader against reagent blank.
(§2) In vitro cytotoxicity of the platinum complexes of compounds 1-7 and cisplatin it DMSO were evaluated by the MTT assay against two human cancer cells namely, human cervical cancer HeLa cells and human breast cancer MDA-231 cells. The results of cytotoxicity are expressed, in terms of IC50 and listed m Table 7. The survival of the cells as a function of concentration of the platinum complexes of compounds 1-7 are graphically presented in FIGS. 4A and 4B. […] Recently, the anticancer properties of some other platinum(II) complexes of heterocyclic selenones have been reported [Altoum et al J. Coord. Chem. 70 (2017) 1020-1031; and. Altoum et al. Polyhedron, 128, 2-8 (2017), 42].

Data set [2] concerns human breast cancer MDA-231 cells. Briefly: MTT in vitro cytotoxicity, MDA-231. In kind it is cell-based. The conditions noted are these: for IC50: MDA-231, MTT, 72 h incubation, read-out: IC50 values against MDA-231; for cytotoxicity compared to cisplatin: MDA-231 (MDA-321 [sic]), MTT. The protocol: as §1, §2
Another data set relates to MCF7 cell line. Briefly: MTT in vitro cytotoxicity, cell line MCF7. The data set is classed as cell-based, human.
Another data set deals with MCF7 cells. The conditions noted are these: read-out: IC50, in vitro cytotoxicity against MCF7 cells, Mustafa (2015) and (2014); cited from earlier work.

On to `CCCN1CCNC1=[Se].CCCN1CCNC1=[Se].N.N.O=[N+]([O-])[O-].O=[N+]([O-])[O-].[Pt+2]` [Complex 5, trans-[Pt(NH3)2(PrImSe)2](NO3)2], for which the IC50 (in general, the concentration at which inhibition is half-maximal) worked out at 6.9 µM in data set [1] and 4.7 µM in data set [2]. Moreover, in the data set on MCF7 cell line, the “cytotoxicity compared to cisplatin” value is “greater cytotoxicity than cisplatin”.
Turning to `N.N.O=[N+]([O-])[O-].O=[N+]([O-])[O-].[Pt+2].[Se]=C1NCCN1.[Se]=C1NCCN1` [Complex 3, [Pt(NH3)2(ImSe)2](NO3)2], the “cytotoxicity compared to cisplatin” value is “comparable cytotoxicity” in data set [1] and “less active” with MCF7 cell line. For the same molecule, the figures for the IC50 in data set [1] and in data set [2] were 3.7 µM and 9.5 µM, respectively.
For `CCN1CCNC1=S.CCN1CCNC1=S.CCN1CCNC1=S.CCN1CCNC1=S.[Cl-].[Cl-].[Pt+2]` [[Pt(EtImt)4]Cl2], in the data set on MCF7 cells, the half-inhibitory concentration (IC50) was 11 µM.
Consider “cis-(Pt(NH3)2Cl2) [Cisplatin, reference compound]”, for which the values for the concentration for half-maximal inhibition (IC50) in data set [1] and in data set [2] were 3.6 µM and 6.3 µM, respectively.
Turning to `CNC(=[Se])NC.CNC(=[Se])NC.N.N.O=[N+]([O-])[O-].O=[N+]([O-])[O-].[Pt+2]` [Complex 2, [Pt(NH3)2(Me2Seu)2](NO3)2], the results for the “cytotoxicity compared to cisplatin” value (in data set [1]; in the data set with MCF7 cell line) were “more cytotoxic than cisplatin” and “less active”, respectively. Also, the 50% inhibitory concentration (IC50) in data set [1] was found to be 2.3 µM; in data set [2] it was 7.4 µM.
With `CCN1CCNC1=[Se].CCN1CCNC1=[Se].N.N.O=[N+]([O-])[O-].O=[N+]([O-])[O-].[Pt+2]` [Complex 4, [Pt(NH3)2(EtImSe)2](NO3)2], in data set [1], the “cytotoxicity compared to cisplatin” value is given as “enhanced cytotoxicity” and the IC50 amounted to 2.1 µM. For the same molecule, in data set [2], the “cytotoxicity compared to cisplatin” value is listed as “enhanced cytotoxicity” and the IC50 was found to be 4.4 µM.
Regarding `S=C1NCCCN1.S=C1NCCCN1.S=C1NCCCN1.S=C1NCCCN1.[Cl-].[Cl-].[Pt+2]` [[Pt(Diaz)4]Cl2], the half-maximal inhibitory concentration (IC50) with MCF7 cells is 19.1 µM.
In the case of `N.N.O=[N+]([O-])[O-].O=[N+]([O-])[O-].[Pt+2].[Se]=C1NCCCCN1.[Se]=C1NCCCCN1` [Complex 7, [Pt(NH3)2(DiapSe)2](NO3)2], the IC50 in data set [1] was determined as 5.4 µM; in data set [2], 5.3 µM.
On to `CC(C)N1CCNC1=[Se].CC(C)N1CCNC1=[Se].N.N.O=[N+]([O-])[O-].O=[N+]([O-])[O-].[Pt+2]` [Complex 6], for which, in data set [1], the “cytotoxicity compared to cisplatin” value was “enhanced cytotoxicity” and the concentration for half-maximal inhibition (IC50) worked out at 3.1 µM. In addition, in data set [2], the “cytotoxicity compared to cisplatin” value is reported as “enhanced cytotoxicity” and the IC50 came to 5.7 µM.
Regarding `N.N.NC(N)=[Se].NC(N)=[Se].O=[N+]([O-])[O-].O=[N+]([O-])[O-].[Pt+2]` [Complex 1, [Pt(NH3)2(Seu)2](NO3)2], in data set [1], the “cytotoxicity compared to cisplatin” value is reported as “enhanced cytotoxicity” and the IC50 was determined as 3.1 µM. Also, in data set [2], the “cytotoxicity compared to cisplatin” value is “enhanced cytotoxicity” and the IC50 is 4.3 µM.
